Measured values from PubChem BioAssay (NCI).
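In this assay, cells in 96-well plates receive the compound at five concentrations for 48 hours. Endpoints are linearly interpolated between the surrounding concentrations. TGI is the concentration that stops growth completely.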

Key:
Test in all cases: DTP human tumour cell line panel, 48 h
[1] = tested on: SW-620 colon
[2] = tested on: HT29 colon
[3] = tested on: UACC-62 melanoma
[4] = tested on: TK-10 renal
[5] = tested on: ACHN renal
[6] = tested on: NCI-H23 lung
[7] = tested on: EKVX NSCLC
[8] = tested on: COLO 205 colon
[9] = tested on: HOP-62 NSCLC
[10] = tested on: CAKI-1 renal
[11] = tested on: A498 renal
[12] = tested on: U251 CNS
[13] = tested on: BT-549 breast
[14] = tested on: HS 578T breast
[15] = tested on: SF-268 CNS
[16] = tested on: NCI-H226 lung
[17] = tested on: NCI/ADR-RES ovarian
[18] = tested on: OVCAR-4 ovarian
[19] = tested on: MCF7 breast
[20] = tested on: SN12C renal
[21] = tested on: MDA-MB-231 breast
[22] = tested on: RXF 393 renal
[23] = tested on: A549 NSCLC
[24] = tested on: MALME-3M melanoma
[25] = tested on: HL-60(TB) leukemia
[26] = tested on: HCT-116 colon
[27] = tested on: SF-295 CNS
[28] = tested on: NCI-H460 lung
[29] = tested on: OVCAR-5 ovarian
[30] = tested on: T-47D breast
[31] = tested on: SK-OV-3 ovarian
[32] = tested on: OVCAR-8 ovarian
[33] = tested on: NCI-H522 lung
[34] = tested on: SK-MEL-2 melanoma
[35] = tested on: SNB-19 CNS
[36] = tested on: SR leukemia
[37] = tested on: DU-145 prostate
[38] = tested on: OVCAR-3 ovarian
[39] = tested on: UACC-257 melanoma
[40] = tested on: HCT-15 colon
[41] = tested on: LOX IMVI melanoma
[42] = tested on: IGROV1 ovarian
[43] = tested on: MDA-N
[44] = tested on: PC-3 prostate
[45] = tested on: CCRF-CEM leukemia
[46] = tested on: K-562 leukemia
[47] = tested on: HCC-2998 colon
[48] = tested on: HOP-92 NSCLC
[49] = tested on: SNB-75 CNS
[50] = tested on: RPMI-8226 leukemia
[51] = tested on: SK-MEL-5 melanoma
[52] = tested on: UO-31 renal
[53] = tested on: KM12 colon
[54] = tested on: M14 melanoma
[55] = tested on: MDA-MB-435
[56] = tested on: SK-MEL-28 melanoma
[57] = tested on: 786-0 renal
[58] = tested on: SF-539 CNS
[59] = tested on: MOLT-4 leukemia

In the case of `Cn1cnc([N+](=O)[O-])c1SCC(=O)O`, the TGI [1] is reported as greater than 100 µM, the TGI [2] is reported as greater than 100 µM and the TGI [3] is reported as greater than 100 µM. The TGI [4] was greater than 100 µM, the TGI [5] was greater than 100 µM and the TGI [6] was greater than 100 µM. The TGI [7] was greater than 100 µM, the TGI [8] was greater than 100 µM and the TGI [9] was greater than 100 µM. It also gave a TGI [10] greater than 100 µM, a TGI [11] greater than 100 µM and a TGI [12] greater than 100 µM. It also gave a TGI [13] greater than 100 µM, a TGI [14] greater than 100 µM and a TGI [15] greater than 100 µM. The TGI [16] was greater than 100 µM, the TGI [17] was greater than 100 µM and the TGI [18] was greater than 100 µM. For the same molecule, the TGI [19] was greater than 100 µM, the TGI [20] was greater than 100 µM and the TGI [21] was greater than 100 µM. The TGI [22] was greater than 100 µM, the TGI [23] was greater than 100 µM and the TGI [24] was greater than 100 µM. The TGI [25] was greater than 100 µM, the TGI [26] was greater than 100 µM and the TGI [27] was greater than 100 µM. It also gave a TGI [28] greater than 100 µM, a TGI [29] greater than 100 µM and a TGI [30] greater than 100 µM. The TGI [31] was greater than 100 µM, the TGI [32] was greater than 100 µM and the TGI [33] was greater than 100 µM. The TGI [34] was greater than 100 µM, the TGI [35] was greater than 100 µM and the TGI [36] was greater than 100 µM. The TGI [37] was greater than 100 µM, the TGI [38] was greater than 100 µM and the TGI [39] was greater than 100 µM. It also gave a TGI [40] greater than 100 µM, a TGI [41] greater than 100 µM and a TGI [42] greater than 100 µM. For the same molecule, the TGI [43] was greater than 100 µM, the TGI [44] was greater than 100 µM and the TGI [45] was greater than 100 µM. It also gave a TGI [46] greater than 100 µM, a TGI [47] greater than 100 µM and a TGI [48] greater than 100 µM. For the same molecule, the TGI [49] was greater than 100 µM, the TGI [50] was greater than 100 µM and the TGI [51] was greater than 100 µM. For the same molecule, the TGI [52] was greater than 100 µM, the TGI [53] was greater than 100 µM and the TGI [54] was greater than 100 µM. The TGI [55] was greater than 100 µM, the TGI [56] was greater than 100 µM and the TGI [57] was greater than 100 µM.

`CCOC(=O)C1=C(C)N(C)C(=S)NC1c1cccc(O)c1` (stereo not given) gave a TGI [1] greater than 100 µM, a TGI [2] greater than 100 µM and a TGI [3] greater than 100 µM. The TGI [4] was greater than 100 µM, the TGI [5] was greater than 100 µM and the TGI [6] was greater than 100 µM. It also gave a TGI [7] of 93.6 µM, a TGI [8] greater than 100 µM and a TGI [9] greater than 100 µM. It also gave a TGI [10] greater than 100 µM, a TGI [11] of 84 µM and a TGI [12] greater than 100 µM. It also gave a TGI [13] of 87.9 µM, a TGI [14] greater than 100 µM and a TGI [15] greater than 100 µM. It also gave a TGI [16] greater than 100 µM, a TGI [17] of 54.9 µM and a TGI [18] greater than 100 µM. It also gave a TGI [19] greater than 100 µM, a TGI [20] greater than 100 µM and a TGI [21] greater than 100 µM. It also gave a TGI [22] of 52.4 µM, a TGI [23] greater than 100 µM and a TGI [25] of 64 µM. It also gave a TGI [26] greater than 100 µM, a TGI [27] greater than 100 µM and a TGI [28] greater than 100 µM. For the same molecule, the TGI [29] was greater than 100 µM, the TGI [30] was greater than 100 µM and the TGI [31] was greater than 100 µM. It also gave a TGI [32] greater than 100 µM, a TGI [33] greater than 100 µM and a TGI [34] of 97.2 µM. The TGI [35] was greater than 100 µM, the TGI [36] was 57.3 µM and the TGI [37] was greater than 100 µM. It also gave a TGI [38] greater than 100 µM, a TGI [39] greater than 100 µM and a TGI [58] greater than 100 µM. It also gave a TGI [40] greater than 100 µM, a TGI [41] greater than 100 µM and a TGI [42] greater than 100 µM. For the same molecule, the TGI [43] was 33 µM, the TGI [44] was greater than 100 µM and the TGI [45] was 72.1 µM. For the same molecule, the TGI [46] was greater than 100 µM, the TGI [47] was 92.6 µM and the TGI [59] was greater than 100 µM. It also gave a TGI [48] of 75.1 µM, a TGI [49] greater than 100 µM and a TGI [50] greater than 100 µM. The TGI [51] was greater than 100 µM, the TGI [52] was greater than 100 µM and the TGI [53] was greater than 100 µM. The TGI [54] was 83.1 µM, the TGI [55] was 34.9 µM and the TGI [56] was greater than 100 µM. It also gave a TGI [57] greater than 100 µM.
